Assay results published in ChEMBL document CHEMBL4342499, “Novel Stapling by Lysine Tethering Provides Stable and Low Hemolytic Cationic Antimicrobial Peptides” (J Med Chem, 2020).

Experiments:
Listeria monocytogenes = test: Antimicrobial activity against Listeria monocytogenes assessed as inhibition of microbial growth incubated for 16 hrs by microdilution method; assay type: functional
Staphylococcus aureus [1] = test: Antimicrobial activity against methicillin-resistant Staphylococcus aureus assessed as inhibition of microbial growth incubated for 16 hrs by microdilution method; assay type: functional
Pseudomonas aeruginosa = test: Antimicrobial activity against Pseudomonas aeruginosa assessed as inhibition of microbial growth incubated for 16 hrs by microdilution method; assay type: functional
Escherichia coli [2] = system: Escherichia coli
Escherichia coli [3] = test: Antimicrobial activity against Escherichia coli assessed as inhibition of microbial growth incubated for 16 hrs by microdilution method; assay type: functional
Staphylococcus aureus [4] = test: Antimicrobial activity against Staphylococcus aureus assessed as inhibition of microbial growth incubated for 16 hrs by microdilution method; assay type: functional

Row | Compound | MIC99.9 (Listeria monocytogenes) [µg/mL] | MIC99.9 (Staphylococcus aureus [1]) [µg/mL] | MIC99.9 (Pseudomonas aeruginosa) [µg/mL] | MIC99.9 (Escherichia coli [2]) [µg/mL] | MIC99.9 (Escherichia coli [3]) [µg/mL] | MIC99.9 (Staphylococcus aureus [4]) [µg/mL]
1 | CCN1CCN(C(=O)N[C@@H](C(=O)N[C@@H]2C(=O)N3C(C(=O)O)=C(CSc4nnnn4C)CS[C@H]23)c2ccc(O)cc2)C(=O)C1=O [CEFOPERAZONE] | 16 | >128 | 2 | >128 | 0.125 | 0.5
2 | CN[C@H](CC(C)C)C(=O)N[C@H]1C(=O)N[C@@H](CC(N)=O)C(=O)N[C@H]2C(=O)N[C@H]3C(=O)N[C@H](C(=O)N[C@H](C(=O)O)c4cc(O)cc(O)c4-c4cc3ccc4O)[C@H](O)c3ccc(c(Cl)c3)Oc3cc2cc(c3O[C@@H]2O[C@H](CO)[C@@H](O)[C@H](O)[C@H]2O[C@H]2C[C@](C)(N)[C@H](O)[C@H](C)O2)Oc2ccc(cc2Cl)[C@H]1O [VANCOMYCIN] | 1 | 2 | >128 | >128 | >128 | 2
